# Key:
# [1] = Antagonist activity at CRTH2 in human eosinophils assessed as inhibition of PGD2-induced shape change by gated autofluorescence forward scatter analysis
# [2] = Partial antagonist activity at CRTH2 in human eosinophils assessed as inhibition of PGD2-induced shape change by FACS analysis
SMILES,IC50 [1] [nM],EC50 [2] [nM]
C[C@H](Oc1ccc(F)cc1-c1ccc(C(=O)N2CCCC2(C)C)c(Cl)c1)C(=O)O,44,–
"CN(C)c1nc(Cc2ccc(NC(=O)c3ccc(C(F)(F)F)cc3)cc2)nc(N(C)C)c1CC(=O)O [2-(4,6-bis(dimethylamino)-2-(4-(4-(trifluoromethyl)benzamido)benzyl)pyrimidin-5-yl)acetic acid]",626,–
COc1ccc2c(c1)c(CC(=O)O)c(C)n2C(=O)c1ccc(Cl)cc1 [indometacin],–,389

# From BindingDB's records for doi:10.1021/jm2013997 (Oxagen, 2012)
